Results on 21 compounds are retold here after a polymer gas permeability compilation.

In turn, `*C(=C(*)c1ccc2c(c1)C(C)(C)CC2(C)C)c1ccc(F)cc1` (repeat unit) showed a CH4 permeability of 34300 Barrer, a CO2 permeability of 47000 Barrer, an H2 permeability of 33300 Barrer and an N2 permeability of 15600 Barrer. In addition, the O2 permeability amounted to 17900 Barrer.
Compound `*C(=C(*)c1ccc2c(c1)C(C)(C)CC2(C)C)c1ccccc1` (repeat unit) yielded a CH4 permeability of 29100 Barrer, a CO2 permeability of 38700 Barrer, an H2 permeability of 24800 Barrer and an N2 permeability of 11600 Barrer. This compound also returned an O2 permeability of 14400 Barrer.
In turn, `*C(=C(*)c1ccc2c(c1)C(C)(C)CCC2(C)C)c1ccccc1` (repeat unit) registered a CH4 permeability of 6600 Barrer, a CO2 permeability of 11400 Barrer, an H2 permeability of 7700 Barrer and an N2 permeability of 2700 Barrer. Further, the O2 permeability came to 3900 Barrer.
`*c1c(C)cc(-c2cc(C)c(N3C(=O)c4cc5c(cc4C3=O)C3(C(C)C)c4ccccc4C5(C(C)C)c4cc5c(cc43)C(=O)N(*)C5=O)c3ccccc23)c2ccccc12` (repeat unit) displayed a CH4 permeability of 190 Barrer, a CO2 permeability of 2910 Barrer, an H2 permeability of 2170 Barrer and an N2 permeability of 145 Barrer. Besides, the O2 permeability was 550 Barrer.
Regarding `*c1c(C)cc(-c2cc(C)c(N3C(=O)c4cc5c(cc4C3=O)C3(C)CCC5(C)c4cc5c(cc43)C(=O)N(*)C5=O)c3ccccc23)c2ccccc12` (repeat unit), the CH4 permeability is 230 Barrer, the CO2 permeability stood at 4300 Barrer, the H2 permeability worked out at 3420 Barrer and the N2 permeability was 208 Barrer. This compound came in with an O2 permeability of 901 Barrer.
In the case of `*c1c(C)cc(-c2cc(C)c(N3C(=O)c4cc5c(cc4C3=O)C3(C)c4ccccc4C5(C)c4cc5c(cc43)C(=O)N(*)C5=O)c3ccccc23)c2ccccc12` (repeat unit), the CH4 permeability was 187 Barrer, the CO2 permeability amounted to 3350 Barrer, the H2 permeability was 2740 Barrer and the N2 permeability is 158 Barrer. The O2 permeability turned out to be 696 Barrer.
In the case of `*c1c(C)cc(Cc2cc(C)c(N3C(=O)c4ccc(-c5ccc6c(c5)C(=O)N(*)C6=O)cc4C3=O)c(C)c2)cc1C` (repeat unit), the CH4 permeability came out at 0.818 Barrer, the CO2 permeability was determined as 22.4 Barrer, the N2 permeability turned out to be 0.913 Barrer and the O2 permeability was 4.73 Barrer.
Take `*c1c(C)cc(Cc2cc(C)c(N3C(=O)c4ccc(C(c5ccc6c(c5)C(=O)N(*)C6=O)(C(F)(F)F)C(F)(F)F)cc4C3=O)c(C)c2)cc1C` (repeat unit): the CH4 permeability turned out to be 1.45 Barrer, the CO2 permeability was found to be 43.9 Barrer, the N2 permeability was determined as 2.13 Barrer and the O2 permeability was 10.3 Barrer.
`*c1c(C)cc2c(c1C)C1c3ccccc3C2c2cc(C)c(N3C(=O)C4C5C=CC(C6C(=O)N(*)C(=O)C56)C4C3=O)c(C)c21` (repeat unit): the CH4 permeability was 69 Barrer, the CO2 permeability is 1310 Barrer, the H2 permeability came out at 1600 Barrer and the N2 permeability is 71 Barrer. In addition, the O2 permeability is 308 Barrer.
Compound `*c1c(C)cc2c(c1C)C1c3ccccc3C2c2cc(C)c(N3C(=O)c4ccc5c6c(ccc(c46)C3=O)C(=O)N(*)C5=O)c(C)c21` (repeat unit) yielded a CH4 permeability of 122 Barrer, a CO2 permeability of 1860 Barrer, an H2 permeability of 1480 Barrer and an N2 permeability of 97 Barrer. In addition, the O2 permeability amounted to 390 Barrer.
The corresponding values for `*c1cc(C(c2ccc(O)c(N3C(=O)c4cc5c(cc4C3=O)C3(C)c4ccccc4C5(C)c4cc5c(cc43)C(=O)N(*)C5=O)c2)(C(F)(F)F)C(F)(F)F)ccc1O` (repeat unit) are 0.565 Barrer, 35 Barrer, 83.5 Barrer, 1.2 Barrer and 7.45 Barrer.
The corresponding values for `*c1cc(C(c2ccc(O)c(N3C(=O)c4ccc(C(c5ccc6c(c5)C(=O)N(*)C6=O)(C(F)(F)F)C(F)(F)F)cc4C3=O)c2)(C(F)(F)F)C(F)(F)F)ccc1O` (repeat unit) are 0.08 Barrer, 9.9 Barrer, 35 Barrer, 0.4 Barrer and 2.6 Barrer.
As for `*c1cc(C)c(C)c(N2C(=O)c3ccc(Oc4cc(C(C)(C)C)ccc4Oc4ccc5c(c4)C(=O)N(*)C5=O)cc3C2=O)c1C` (repeat unit), the CH4 permeability amounted to 2.5 Barrer, the CO2 permeability is 63 Barrer, the H2 permeability is 85 Barrer and the N2 permeability was 2.2 Barrer. The compound also gave an O2 permeability of 11 Barrer.
In turn, `*c1cc(C)c(C)c(N2C(=O)c3ccc(Oc4cc(C)ccc4Oc4ccc5c(c4)C(=O)N(*)C5=O)cc3C2=O)c1C` (repeat unit) came in with a CH4 permeability of 0.57 Barrer, a CO2 permeability of 22 Barrer, an H2 permeability of 41 Barrer and an N2 permeability of 0.65 Barrer. Moreover, the O2 permeability came out at 3.9 Barrer.
`*c1cc(C)c(N2C(=O)c3ccc(C(c4ccc5c(c4)C(=O)N(*)C5=O)(C(F)(F)F)C(F)(F)F)cc3C2=O)c(C)c1` (repeat unit): the CH4 permeability was 0.349 Barrer, the CO2 permeability was determined as 17.9 Barrer, the N2 permeability is 0.499 Barrer and the O2 permeability came out at 3.53 Barrer.
On to `*c1cc2c(cc1C)-c1cc(C)c(N3C(=O)c4cc5c(cc4C3=O)S(=O)(=O)c3cc4c(cc3S5(=O)=O)C(=O)N(*)C4=O)cc1S2(=O)=O` (repeat unit), for which the CH4 permeability worked out at 0.59 Barrer, the CO2 permeability was determined as 24 Barrer and the N2 permeability amounted to 0.7 Barrer.
As to `*c1cc2c(cc1C)-c1cc(C)c(N3C(=O)c4ccc(-c5ccc6c(c5)C(=O)N(*)C6=O)cc4C3=O)cc1S2(=O)=O` (repeat unit), the CH4 permeability was found to be 0.037 Barrer, the CO2 permeability is 2.74 Barrer, the N2 permeability is 0.0763 Barrer and the O2 permeability amounted to 0.577 Barrer.
`*c1cc2c(cc1O)C1(CC2(C)C)CC(C)(C)c2cc(N3C(=O)C4C5C=CC(C6C(=O)N(*)C(=O)C56)C4C3=O)c(O)cc21` (repeat unit) gave a CH4 permeability of 4.6 Barrer, a CO2 permeability of 130 Barrer, an H2 permeability of 206 Barrer and an N2 permeability of 5.5 Barrer. For the same compound, the O2 permeability turned out to be 23 Barrer.
In turn, `*c1ccc(*)c(C(=O)c2ccccc2)c1` (repeat unit) registered a CH4 permeability of 0.36 Barrer, a CO2 permeability of 14.2 Barrer, an H2 permeability of 27.4 Barrer and an N2 permeability of 0.4 Barrer. In addition, the O2 permeability was determined as 2.99 Barrer.
The compound `*c1ccc(-c2cc(C)c(-c3ccc(*)c(C)c3)cc2C)cc1C` (repeat unit) returned a CH4 permeability of 1.1 Barrer, an H2 permeability of 51 Barrer, an N2 permeability of 1.6 Barrer and an O2 permeability of 8.6 Barrer.
Compound `*c1ccc(-c2cc(C)c(-c3ccc(*)cc3C)cc2C)c(C)c1` (repeat unit) registered a CH4 permeability of 0.88 Barrer, a CO2 permeability of 32 Barrer, an H2 permeability of 72 Barrer and an N2 permeability of 1.4 Barrer. Moreover, the O2 permeability stood at 7.2 Barrer.
